Source: patent publication US20260262643A1, “HERBICIDAL BENZOXAZINES” (FMC CORPORATION, priority 2022, published 2026)

How the values were obtained:
[1] = system: kochia; assay: Test A postemergence; format: in vivo, Bassia scoparia; settings: Bassia scoparia, post-emergence, 240 h, postemergence, 10 days, 0 to 100 scale (0 no effect, 100 complete control); for pest or weed control at 125 g/ha: 125 g ai/ha, read-out: Kochia plant response rating; for pest or weed control at 500 g/ha: 500 g ai/ha, visual injury, read-out: Plant response rating, Kochia
Summary of the method: (§1)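 Plants were grown in loam and sand and treated preemergence or postemergence (one- to two-leaf stage, 2–10 cm) with compound in solvent plus surfactant. Response was scored against untreated controls after 10 greenhouse days, where 0 means no effect and 100 complete control.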

[2] = system: soybean; assay: Test A postemergence; format: in vivo, Glycine max; settings: Glycine max, post-emergence, 240 h, postemergence, 10 days, 0 to 100 scale (0 no effect, 100 complete control); for plant injury at 125 g/ha: 125 g ai/ha, read-out: Soybean plant response rating; for plant injury at 500 g/ha: 500 g ai/ha, visual injury, read-out: Plant response rating, Soybean
Summary of the method: as §1

[3] = system: blackgrass; assay: Test A preemergence; format: in vivo, Alopecurus myosuroides; settings: Alopecurus myosuroides, pre-emergence, 240 h, read-out: Plant response rating, Blackgrass; for pest or weed control at 125 g/ha: 125 g ai/ha, visual injury after 10 days, 0 to 100 scale, 0 is no effect, 100 is complete control; for pest or weed control at 500 g/ha: 500 g ai/ha, 0 to 100 scale (0 no effect, 100 complete control), 10 days
Summary of the method: as §1

[4] = system: oat, wild; assay: Test A postemergence; format: in vivo, Avena fatua; settings: Avena fatua, post-emergence, 240 h, postemergence, 10 days, 0 to 100 scale (0 no effect, 100 complete control); for pest or weed control at 125 g/ha: 125 g ai/ha, read-out: Oat, Wild plant response rating; for pest or weed control at 500 g/ha: 500 g ai/ha, visual injury, read-out: Plant response rating, Oat, Wild
Summary of the method: as §1

[5] = system: wheat; assay: Test A postemergence; format: in vivo, Triticum aestivum; settings: Triticum aestivum, post-emergence, 240 h, postemergence, 10 days, 0 to 100 scale (0 no effect, 100 complete control); for plant injury at 125 g/ha: 125 g ai/ha, read-out: Wheat plant response rating; for plant injury at 500 g/ha: 500 g ai/ha, visual injury, read-out: Plant response rating, Wheat
Summary of the method: as §1

[6] = system: sedge, umbrella; assay: Test B flooded paddy test; format: in vivo, Cyperus difformis; settings: Cyperus difformis, 312 h; 250 g ai/ha, Flood, 13 days, 0 to 100 scale (0 no effect, 100 complete control); read-out: Plant response rating, Sedge, Umbrella
Summary of the method: (§2)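 Each species was raised to the 2-leaf stage. At treatment, each pot received floodwater 3 cm deep, with the chemical delivered into the water. Greenhouse holding followed for 13 days, then percent control was estimated visually versus untreated pots.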

[7] = system: soybean; assay: Test A preemergence; format: in vivo, Glycine max; settings: Glycine max, pre-emergence, 240 h, read-out: Plant response rating, Soybean; for plant injury at 125 g/ha: 125 g ai/ha, visual injury after 10 days, 0 to 100 scale, 0 is no effect, 100 is complete control; for plant injury at 500 g/ha: 500 g ai/ha, 0 to 100 scale (0 no effect, 100 complete control), 10 days
Summary of the method: as §1

[8] = system: ducksalad; assay: Test B flooded paddy test; format: in vivo, Heteranthera limosa; settings: Heteranthera limosa, 312 h, 250 g ai/ha, Flood, 13 days, 0 to 100 scale (0 no effect, 100 complete control); read-out: Plant response rating, Ducksalad
Summary of the method: as §2

[9] = system: pigweed, palmer; assay: Test A preemergence; format: in vivo, Amaranthus palmeri; settings: Amaranthus palmeri, pre-emergence, 240 h, read-out: Plant response rating, Pigweed, Palmer; for pest or weed control at 125 g/ha: 125 g ai/ha, visual injury after 10 days, 0 to 100 scale, 0 is no effect, 100 is complete control; for pest or weed control at 500 g/ha: 500 g ai/ha, 0 to 100 scale (0 no effect, 100 complete control), 10 days
Summary of the method: as §1

[10] = system: ryegrass, Italian; assay: Test A postemergence; format: in vivo, Lolium multiflorum; settings: Lolium multiflorum, post-emergence, 240 h, postemergence, 10 days, 0 to 100 scale (0 no effect, 100 complete control); for pest or weed control at 125 g/ha: 125 g ai/ha, read-out: Ryegrass, Italian plant response rating; for pest or weed control at 500 g/ha: 500 g ai/ha, visual injury, read-out: Plant response rating, Ryegrass, Italian
Summary of the method: as §1

[11] = system: galium; assay: Test A postemergence; format: in vivo, Galium aparine; settings: Galium, post-emergence, 240 h, postemergence, 10 days, 0 to 100 scale (0 no effect, 100 complete control); for pest or weed control at 125 g/ha: 125 g ai/ha, read-out: Galium plant response rating; for pest or weed control at 500 g/ha: 500 g ai/ha, visual injury, read-out: Plant response rating, Galium
Summary of the method: as §1

[12] = system: kochia; assay: Test A preemergence; format: in vivo, Bassia scoparia; settings: Bassia scoparia, pre-emergence, 240 h, read-out: Plant response rating, Kochia; for pest or weed control at 125 g/ha: 125 g ai/ha, visual injury after 10 days, 0 to 100 scale, 0 is no effect, 100 is complete control; for pest or weed control at 500 g/ha: 500 g ai/ha, 0 to 100 scale (0 no effect, 100 complete control), 10 days
Summary of the method: as §1

[13] = system: ragweed; assay: Test A postemergence; format: in vivo, Ambrosia artemisiifolia; settings: Ambrosia artemisiifolia, post-emergence, 240 h, postemergence, 10 days, 0 to 100 scale (0 no effect, 100 complete control); for pest or weed control at 125 g/ha: 125 g ai/ha, read-out: Ragweed plant response rating; for pest or weed control at 500 g/ha: 500 g ai/ha, visual injury, read-out: Plant response rating, Ragweed
Summary of the method: as §1

[14] = system: oat, wild; assay: Test A preemergence; format: in vivo, Avena fatua; settings: Avena fatua, pre-emergence, 240 h, read-out: Plant response rating, Oat, Wild; for pest or weed control at 125 g/ha: 125 g ai/ha, visual injury after 10 days, 0 to 100 scale, 0 is no effect, 100 is complete control; for pest or weed control at 500 g/ha: 500 g ai/ha, 0 to 100 scale (0 no effect, 100 complete control), 10 days
Summary of the method: as §1

[15] = system: rice; assay: Test B flooded paddy test; format: in vivo, Oryza sativa; settings: Oryza sativa, 312 h; 250 g ai/ha, Flood, 13 days, 0 to 100 scale (0 no effect, 100 complete control); read-out: Plant response rating, Rice
Summary of the method: as §2

SMILES | pest or weed control at 125 g/ha [1] [%] | pest or weed control at 500 g/ha [1] [%] | plant injury at 125 g/ha [2] [%] | plant injury at 500 g/ha [2] [%] | pest or weed control at 125 g/ha [3] [%] | pest or weed control at 500 g/ha [3] [%] | pest or weed control at 125 g/ha [4] [%] | pest or weed control at 500 g/ha [4] [%] | plant injury at 125 g/ha [5] [%] | plant injury at 500 g/ha [5] [%] | pest or weed control at 250 g/ha [6] [%] | plant injury at 125 g/ha [7] [%] | plant injury at 500 g/ha [7] [%] | pest or weed control at 250 g/ha [8] [%] | pest or weed control at 125 g/ha [9] [%] | pest or weed control at 500 g/ha [9] [%] | pest or weed control at 125 g/ha [10] [%] | pest or weed control at 500 g/ha [10] [%] | pest or weed control at 125 g/ha [12] [%] | pest or weed control at 500 g/ha [12] [%] | other results
Cc1cccc2c1O[C@@H](C)CN2C(=O)c1cccc(-n2cnc(C3COC3)n2)c1 [Compound 109, [(2S)-2,3-Dihydro-2,8-dimethyl-4H-1,4-benzoxazin-4-yl][3-[3-(3-oxetanyl)-1H-1,2,4-triazol-1-yl]phenyl]methanone] | 70 | 90 | 100 | 100 | 80 | 90 | 80 | 80 | 40 | 90 | 98 | 30 | 80 | 75 | 90 | 100 | 50 | 100 | 60 | 90 | pest or weed control at 125 g/ha [11]: 70%; pest or weed control at 500 g/ha [11]: 100%; pest or weed control at 125 g/ha [13]: 0%; pest or weed control at 500 g/ha [13]: 50%; pest or weed control at 125 g/ha [14]: 50%; pest or weed control at 500 g/ha [14]: 90%; plant injury at 250 g/ha [15]: 0%
Cc1ccc(-n2cnc(C3CCC3)n2)cc1C(=O)N1C[C@H](C)Oc2c(Cl)cccc21 [Compound 96, [(2S)-8-Chloro-2,3-dihydro-2-methyl-4H-1,4-benzoxazin-4-yl][5-(3-cyclobutyl-1H-1,2,4-triazol-1-yl)-2-methylphenyl]methanone] | 90 | 100 | 100 | 100 | 40 | 80 | 30 | 80 | 30 | 40 | 98 | 50 | 50 | 65 | 100 | 100 | 50 | 100 | 30 | 100 | pest or weed control at 125 g/ha [11]: 100%; pest or weed control at 500 g/ha [11]: 100%; pest or weed control at 125 g/ha [13]: 60%; pest or weed control at 500 g/ha [13]: 70%; pest or weed control at 125 g/ha [14]: 50%; pest or weed control at 500 g/ha [14]: 80%; plant injury at 250 g/ha [15]: 0%
Cc1cccc2c1O[C@@H](C)CN2C(=O)c1cccc(-n2cnc(C3CCCC3)n2)c1 [Compound 80, [3-(3-Cyclopentyl-1H-1,2,4-triazol-1-yl)phenyl][(2S)-2,3-dihydro-2,8-dimethyl-4H-1,4-benzoxazin-4-yl]methanone] | 40 | 70 | 70 | 100 | 20 | 40 | 0 | 20 | 10 | 10 | 0 | 0 | 0 | 0 | 10 | 80 | 20 | 70 | 10 | 80 | pest or weed control at 125 g/ha [13]: 40%; pest or weed control at 500 g/ha [13]: 60%; pest or weed control at 125 g/ha [14]: 0%; pest or weed control at 500 g/ha [14]: 10%; plant injury at 250 g/ha [15]: 0%
